Assay results: patent US20230348369A1 (Cytokinetics, Inc., priority 2020, published 2023)
Read-outs that look alike come from different tables or passages of the source.

Target: human NAMPT (Homo sapiens, UniProt P43490)
Test: Human recombinant enzyme assay (NMN fluorescence biochemical assay, activation of NAMPT)
Procedure: Compounds described herein were assayed for their ability to stimulate the synthesis of nicotinamide mononucleotide (NMN) by the enzyme NAMPT. The human recombinant enzyme assay measures the activation of the enzyme activity by compounds using recombinant enzyme and substrates in a buffered cell-free system. The assay conditions closely mimic cellular environments. Dose responses were measured using an assay to detect the formation of nicotinamide mono-nucleotide. All experiments were performed in the 384-well format. […] Enzyme reactions were initiated with the addition of 10 μL of a solution containing the substrates. The final assay conditions were as follows: 6 nM human NAMPT, 2.5 mM ATP, 20 μM PRPP and 150 μM nicotinamide in 50 mM HEPES, pH 7.2, 1 mM DTT, 1 mM CHAPS 50 mM NaCl, 100 mM MgCl2. Following an incubation of 60 min at ambient temperature, 10 μL of 20% acetophenone in DMSO was added, followed by 10 μL of 2 M KOH and 40 μL of formic acid. The plates were read for fluorescence (Excitation/Emission=355 nm/460 nm) using an EnVision plate reader after 40 mins of incubation at ambient temperature.

[1] = Table A, human recombinant NAMPT, NMN formation, 60 min
[2] = Table A, human recombinant NAMPT, NMN formation, 60 min, read-out: EC50 Human

Chain of human NAMPT (P43490 whole entry): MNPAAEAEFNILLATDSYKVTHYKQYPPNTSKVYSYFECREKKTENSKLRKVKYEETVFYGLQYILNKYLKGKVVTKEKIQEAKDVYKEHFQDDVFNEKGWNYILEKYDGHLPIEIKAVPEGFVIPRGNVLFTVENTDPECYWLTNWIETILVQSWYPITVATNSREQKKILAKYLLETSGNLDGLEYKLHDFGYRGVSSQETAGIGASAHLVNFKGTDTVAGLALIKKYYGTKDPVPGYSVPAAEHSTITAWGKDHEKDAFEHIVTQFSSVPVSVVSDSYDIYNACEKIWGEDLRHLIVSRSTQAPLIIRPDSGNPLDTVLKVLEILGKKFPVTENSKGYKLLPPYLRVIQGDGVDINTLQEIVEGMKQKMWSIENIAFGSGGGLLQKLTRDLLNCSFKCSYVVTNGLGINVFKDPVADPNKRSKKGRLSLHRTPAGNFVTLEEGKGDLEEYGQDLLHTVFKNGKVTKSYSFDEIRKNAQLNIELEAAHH

AC1.4 Human [1] [µM]	EC50 [2] [µM]	Structure (SMILES)	EC50 [µM]
2.4	45.4	COc1ccc(CNC(=O)NC2CC3(C2)CC(C(=O)NCC(C)(C)c2ccncc2)C3)cc1 (centres unmarked) [Compound 80, 6-(3-(4-methoxybenzyl)ureido)-N-(2-methyl-2-(pyridin-4-yl)propyl)spiro[3.3]heptane-2-carboxamide]	–
2.9	13.5	COc1ccc(CNC(=O)NC2CC3(C2)CC(C(=O)N[C@H]2CCc4ccccc42)C3)cc1 (stereo partly drawn) [Compound 92, (S)-N-(2,3-dihydro-1H-inden-1-yl)-6-(3-(4-methoxybenzyl)ureido)spiro[3.3]heptane-2-carboxamide]	–
6.3	34.8	COc1ccc(CNC(=O)NC2CC3(C2)CC(C(=O)NC2CC(CO)c4ccccc42)C3)cc1 (centres unmarked) [Compound 93, N-(3-(hydroxymethyl)-2,3-dihydro-1H-inden-1-yl)-6-(3-(4-methoxybenzyl)ureido)spiro[3.3]heptane-2-carboxamide]	–
4.3	13.3	COc1ccc(CNC(=O)NC2CC3(C2)CC(C(=O)NC2Cc4ccccc4C2)C3)cc1 (centres unmarked) [Compound 95, N-(2,3-dihydro-1H-inden-2-yl)-6-(3-(4-methoxybenzyl)ureido)spiro[3.3]heptane-2-carboxamide]	–
2.6	4.1	COc1ccc(CNC(=O)NC2CC3(C2)CC(C(=O)N[C@@H]2CCc4ccccc4C2)C3)cc1 (stereo partly drawn) [Compound 96, (R)-6-(3-(4-methoxybenzyl)ureido)-N-(1,2,3,4-tetrahydronaphthalen-2-yl)spiro[3.3]heptane-2-carboxamide]	–
8.0	33.3	COc1ccc(CNC(=O)NC2CC3(C2)CC(C(=O)N2CCCc4ccc(F)c(F)c42)C3)cc1 (centres unmarked) [Compound 102]	–
0.3	7	COc1ccc(CNC(=O)NC2CC3(C2)CC(C(=O)N2CCCc4cc(OC(F)F)ccc42)C3)cc1 (centres unmarked) [Compound 103, 1-(6-(6-(difluoromethoxy)-1,2,3,4-tetrahydroquinoline-1-carbonyl)spiro[3.3]heptan-2-yl)-3-(4-methoxybenzyl)urea]	–
0.5	10.7	COc1ccc(CNC(=O)NC2CC3(C2)CC(C(=O)N2CCCc4cc(C(F)(F)F)ccc42)C3)cc1 (centres unmarked) [Compound 104, 1-(4-methoxybenzyl)-3-(6-(6-(trifluoromethyl)-1,2,3,4-tetrahydroquinoline-1-carbonyl)spiro[3.3]heptan-2-yl)urea]	–
0.1	1.8	COc1ccc(CNC(=O)NC2CC3(C2)CC(C(=O)N2CCCc4ccc(F)cc42)C3)cc1 (centres unmarked) [Compound 106, 1-(6-(7-fluoro-1,2,3,4-tetrahydroquinoline-1-carbonyl)spiro[3.3]heptan-2-yl)-3-(4-methoxybenzyl)urea]	–
0.1	1.4	COc1ccc(CNC(=O)NC2CC3(C2)CC(C(=O)N2CCCc4ccc(C)cc42)C3)cc1 (centres unmarked) [Compound 108, 1-(4-methoxybenzyl)-3-(6-(7-methyl-1,2,3,4-tetrahydroquinoline-1-carbonyl)spiro[3.3]heptan-2-yl)urea]	–
1.0	26.8	COc1ccc(CNC(=O)NC2CC3(C2)CC(C(=O)N2CCN(C4COC4)CC2)C3)cc1 (centres unmarked) [Compound 111, 1-(4-methoxybenzyl)-3-(6-(4-(oxetan-3-yl)piperazine-1-carbonyl)spiro[3.3]heptan-2-yl)urea]	–
3.0	46.9	COc1ccc(CNC(=O)NC2CC3(C2)CC(C(=O)N2CCN(CC4CC4)CC2)C3)cc1 (centres unmarked) [Compound 112, 1-(6-(4-(cyclopropylmethyl)piperazine-1-carbonyl)spiro[3.3]heptan-2-yl)-3-(4-methoxybenzyl)urea]	–
10.2	14.7	O=C(Cc1ccccc1)NC1CC2(C1)CC(NC(=O)NCc1ccc(Cl)cc1)C2 (centres unmarked) [Compound 115, N-(6-(3-(4-chlorobenzyl)ureido)spiro[3.3]heptan-2-yl)-2-phenylacetamide]	–
3.2	33.9	COc1ccc(CNC(=O)NC2CC3(C2)CN(S(=O)(=O)Cc2ccccc2Cl)C3)cc1 [Compound 117, 1-(2-((2-chlorobenzyl)sulfonyl)-2-azaspiro[3.3]heptan-6-yl)-3-(4-methoxybenzyl)urea]	–
3.0	14.2	COc1ccc(CNC(=O)NC2CC3(C2)CN(S(=O)(=O)CCc2ccccc2Cl)C3)cc1 [Compound 118, 1-(2-((2-chlorophenethyl)sulfonyl)-2-azaspiro[3.3]heptan-6-yl)-3-(4-methoxybenzyl)urea]	–

Further lines, the compound ahead of its results:

Structure (SMILES)	AC1.4 Human [1] [µM]	EC50 [2] [µM]	EC50 [µM]
COc1ccc(CNC(=O)NC2CC3(C2)CC(C(=O)NC2CC(c4ccncc4)C2)C3)cc1 (centres unmarked) [Compound 78, 6-(3-(4-methoxybenzyl)ureido)-N-(3-(pyridin-4-yl)cyclobutyl)spiro[3.3]heptane-2-carboxamide]	4.4	45.2	–
COc1ccc(CNC(=O)N[C@H]2C[C@]3(CCN(C(=O)OC(C)(C)C)C3)C2)cc1 [Compound 81, tert-butyl (2r,4s)-2-(3-(4-methoxybenzyl)ureido)-6-azaspiro[3.4]octane-6-carboxylate]	12.5	37.2	–
COc1ccc(CNC(=O)N[C@H]2C[C@@]3(CCN(C(=O)OC(C)(C)C)C3)C2)cc1 [Compound 82, tert-butyl (2s,4r)-2-(3-(4-methoxybenzyl)ureido)-6-azaspiro[3.4]octane-6-carboxylate]	10.7	52.3	–
COc1ccc(CNC(=O)NC2CC3(C2)CC(C(=O)Nc2ccccc2)C3)cc1 (centres unmarked) [Compound 86, 6-(3-(4-methoxybenzyl)ureido)-N-phenylspiro[3.3]heptane-2-carboxamide]	4.7	49.4	–
COc1ccc(CNC(=O)NC2CC3(C2)CC(C(=O)NCc2ccnc(OC(F)F)c2)C3)cc1 (centres unmarked) [Compound 88, N-((2-(difluoromethoxy)pyridin-4-yl)methyl)-6-(3-(4-methoxybenzyl)ureido)spiro[3.3]heptane-2-carboxamide]	16.3	48.8	–
COc1ccc(CNC(=O)NC2CC3(C2)CC(C(=O)Nc2ccc4nncn4c2)C3)cc1 (centres unmarked) [Compound 89, N-([1,2,4]triazolo[4,3-a]pyridin-6-yl)-6-(3-(4-methoxybenzyl)ureido)spiro[3.3]heptane-2-carboxamide]	10.3	33.7	–
COc1ccc(CNC(=O)NC2CC3(C2)CC(C(=O)N[C@@H]2CCc4ccccc42)C3)cc1 (stereo partly drawn) [Compound 91, (R)-N-(2,3-dihydro-1H-inden-1-yl)-6-(3-(4-methoxybenzyl)ureido)spiro[3.3]heptane-2-carboxamide]	3.7	13	–
COc1ccc(CNC(=O)NC2CC3(C2)CC(C(=O)NC2Cc4ccccc4C2O)C3)cc1 (centres unmarked) [Compound 94, N-(1-hydroxy-2,3-dihydro-1H-inden-2-yl)-6-(3-(4-methoxybenzyl)ureido)spiro[3.3]heptane-2-carboxamide]	11.0	38.7	–
COc1ccc(CNC(=O)NC2CC3(C2)CC(C(=O)N2CCCc4cc(F)ccc42)C3)cc1 (centres unmarked) [Compound 101, 1-(6-(6-fluoro-1,2,3,4-tetrahydroquinoline-1-carbonyl)spiro[3.3]heptan-2-yl)-3-(4-methoxybenzyl)urea]	0.2	2.7	–
COc1ccc(CNC(=O)NC2CC3(C2)CC(C(=O)N2CCCc4c(F)cccc42)C3)cc1 (centres unmarked) [Compound 105, 1-(6-(5-fluoro-1,2,3,4-tetrahydroquinoline-1-carbonyl)spiro[3.3]heptan-2-yl)-3-(4-methoxybenzyl)urea]	0.1	2.2	–
COc1ccc(CNC(=O)NC2CC3(C2)CC(C(=O)N2CCCc4cc(OC(F)(F)F)ccc42)C3)cc1 (centres unmarked) [Compound 107, 1-(4-methoxybenzyl)-3-(6-(6-(trifluoromethoxy)-1,2,3,4-tetrahydroquinoline-1-carbonyl)spiro[3.3]heptan-2-yl)urea]	2.9	48.8	–
CC(C)(O)CN1CCN(C(=O)C2CC3(CC(NC(=O)NCc4ccc(F)cc4)C3)C2)CC1 (centres unmarked) [Compound 109, 1-(4-fluorobenzyl)-3-(6-(4-(2-hydroxy-2-methylpropyl)piperazine-1-carbonyl)spiro[3.3]heptan-2-yl)urea]	3.5	10.2	–
COc1ccc(CNC(=O)NC2CC3(C2)CC(C(=O)N2CCN(C)CC2CO)C3)cc1 (centres unmarked) [Compound 113, 1-(6-(2-(hydroxymethyl)-4-methylpiperazine-1-carbonyl)spiro[3.3]heptan-2-yl)-3-(4-methoxybenzyl)urea]	3.8	51.6	–
O=C(NCc1ccc(Cl)cc1)NC1CC2(C1)CC(NC(=O)c1ccccc1)C2 (centres unmarked) [Compound 114, N-(6-(3-(4-chlorobenzyl)ureido)spiro[3.3]heptan-2-yl)benzamide]	11.0	33.1	–
COc1ccc(CNC(=O)NC2CC3(C2)CN(S(=O)(=O)c2ccccc2Cl)C3)cc1 [Compound 116, 1-(2-((2-chlorophenyl)sulfonyl)-2-azaspiro[3.3]heptan-6-yl)-3-(4-methoxybenzyl)urea]	8.0	–	51.3
O=C(NCc1ccc(Cl)cc1)NC1CC2(C1)CC(N(Cc1ccccc1)Cc1ccccc1)C2 (centres unmarked) [Compound 119, 1-(4-chlorobenzyl)-3-(6-(dibenzylamino)spiro[3.3]heptan-2-yl)urea]	3.8	16.7	–
